Experimental data: patent publication US20240101599A1, “PEPTIDE, CELL GROWTH PROMOTER, PROTEIN PRODUCTION PROMOTER, CULTURE MEDIUM, CELL GROWTH METHOD USING PEPTIDE, AND PROTEIN PRODUCTION METHOD USING PEPTIDE” (Maruhachi Muramatsu, Inc., priority 2020, published 2024)
Read-outs that look alike come from different tables or passages of the source. Peptide text beside a SMILES is read from it.

Legend:
[1] = system: CHO DP-12; assay: Cell growth test and protein production test when peptide was added to total synthesis medium; format: cell-based; settings: for Viability, Average / Viable cell count, Average / Amount of protein produced, Average: average n=3; for Viability, Average / Viable cell count, Average / Amount of protein produced, Average / Viability, 1 / Viable cell count, 1 / Amount of protein produced, 1 / Viability, 2 / Viable cell count, 2 / Amount of protein produced, 2 / Viability, 3 / Viable cell count, 3 / Amount of protein produced, 3: ASF104 basal medium, 5 days; for Amount of protein produced, Average / Amount of protein produced, 1 / Amount of protein produced, 2 / Amount of protein produced, 3: ELISA; for Viability, 1 / Viable cell count, 1 / Amount of protein produced, 1: replicate 1; for Viability, 2 / Viable cell count, 2 / Amount of protein produced, 2: replicate 2; for Viability, 3 / Viable cell count, 3 / Amount of protein produced, 3: replicate 3
Procedure: A peptide having the sequence of Gly-Glu-Lys (GEK) was synthesized to prepare peptide solutions at the concentrations of 0 mM, 2.6 mM, 5.1 mM, 10 mM, 20.5 mM, and 41 mM, and an amount of 1/10 of the total culture medium volume was added to each well immediately before the cell culture test such that final concentrations were 0 mM, 0.26 mM, 0.51 mM, 1.0 mM, 2.05 mM, and 4.1 mM, respectively. In the present test, CHO DP-12 (ATCC, Cat. No. CRL-12445) acclimated to an ASF104 basal medium in which 200 nM of methotrexate and 2 μg/mL of insulin were blended in an ASF104 culture medium (Ajinomoto Co., Inc.), which is a total synthesis medium for CHO, was used. A cell suspension prepared such that a cell concentration was 4×10^4 cells/mL was seeded in a 24-well plate at 450 μL/well and cultured in an incubator at 37° C. and 5% CO2 for 24 hours. As a culture medium, an ASF104 basal medium in which 200 nM of methotrexate and 2 μg/mL of insulin were blended in an ASF104 culture medium (Ajinomoto Co., Inc.), which is a total synthesis medium for CHO, was used.
After 24 hours, 50 μL of the prepared peptide solution was added to each well to perform culture for 5 days. The cells were recovered after culture to count the viable cell count.
• ASF104 basal medium • GEK (0.26 mM)+ASF104 basal medium • GEK (0.51 mM)+ASF104 basal medium • GEK (1.0 mM)+ASF104 basal medium • GEK (2.05 mM)+ASF104 basal medium • GEK (4.1 mM)+ASF104 basal medium
100 μL of the culture medium supernatant was collected in a 1.5 mL tube to quantitatively determine the amount of protein produced. The supernatant was diluted to measure the amount of protein produced by ELISA.
In order to analyze the cells, the culture medium in each well was recovered in a 1.5 mL tube to be rinsed with 200 μL of PBS, and the rinsed liquid was also recovered in the same 1.5 mL tube. Thereafter, 100 μL of 0.25% trypsin/EDTA was added to perform incubation for 1 minute. 100 μL of a trypsin inhibitor was added to recover in the same 1.5 mL tube. After rinsing with 200 μL of PBS to recover the rinsed liquid in the same 1.5 mL tube, a centrifugation operation was performed. Suspension was performed in 100 μL of PBS to measure the viable cell count and the cell viability by a trypan blue staining method using a cell counter.
The above preparation, culture, and measurement were performed with n=3. Table 28 and FIG. 27 show the viable cell count in each peptide solution, Table 29 and FIG. 28 show the cell viability in each peptide solution, and Table 30 and FIG. 29 show the amount of protein produced.

[2] = system: CHO DP-12; settings: 5 days; for Viable cell count: n=3; for Amount of protein produced: n=3, ELISA
Procedure: A cell suspension prepared such that CHO DP-12 (ATCC, Cat. No. CRL-12445) was at 2×10^4 cells/mL was seeded in a 24-well plate at 1×10^4 cells/well (500 μL) and cultured in an incubator at 37° C. and 5% CO2 for 24 hours. As a culture medium, a DMEM basal medium in which 200 nM of methotrexate and 2 μg/mL of insulin were blended in a DMEM culture medium (Gibco) containing 10% FBS was used.
After removing the culture medium from each well and washing with the DMEM basal medium (500 μL), each peptide solution (500 μL) was dispensed to each well (total 500 μL/well) to perform culture for 5 days.
After replacing each culture medium with an evaluation medium of the following test section, culture was performed in an incubator at 37° C. and 5% CO2 for 5 days.
• DMEM basal medium • AGK (1 mM)+DMEM basal medium • AGK (2 mM)+DMEM basal medium • Medium supplemented with vitamins and nucleic acids (DMEM basal medium+vitamin+nucleic acid) • AGK (1 mM)+medium supplemented with vitamins and nucleic acids • AGK (2 mM)+medium supplemented with vitamins and nucleic acids
After 5 days of culture, the total amount of the culture medium in each well of the 24-well plate was recovered, a centrifugation operation (5,000 rpm, for 5 minutes) was performed, and the supernatant was separately recovered to measure the amount of produced protein by ELISA.
The cells adhered to the wells after recovering the culture medium were detached by trypsin treatment and suspended again in the DMEM basal medium containing 10% FBS to measure the viable cell count and the viability by a trypan blue staining method using a cell counter.

[3] = 1 mM AGK + medium supplemented with vitamins and nucleic acids
[4] = 2 mM AGK + medium supplemented with vitamins and nucleic acids

## NCCCC[C@H](NC(=O)[C@H](CCC(=O)O)NC(=O)CN)C(=O)O [GEK, Gly-Glu-Lys] (H-Gly-Glu-Lys-OH; N-terminus and C-terminus assumed)
[1]; 0.26 mM GEK
  Viability, Average: 97.0%
  Viable cell count, Average: 1.6 ×10^6 cells/well
  Amount of protein produced, Average: 12.5 mg/L
  Viability, 1: 96%
  Viable cell count, 1: 1.6 ×10^6 cells/well
  Amount of protein produced, 1: 12.2 mg/L
  Viability, 2: 99%
  Viable cell count, 2: 1.5 ×10^6 cells/well
  Amount of protein produced, 2: 12.6 mg/L
  Viability, 3: 96%
  Viable cell count, 3: 1.6 ×10^6 cells/well
  Amount of protein produced, 3: 12.7 mg/L
[1]; 0.51 mM GEK
  Viability, Average: 96.7%
  Viable cell count, Average: 1.6 ×10^6 cells/well
  Amount of protein produced, Average: 12.9 mg/L
  Viability, 1: 95%
  Viable cell count, 1: 1.5 ×10^6 cells/well
  Amount of protein produced, 1: 12.8 mg/L
  Viability, 2: 98%
  Viable cell count, 2: 1.7 ×10^6 cells/well
  Amount of protein produced, 2: 13.2 mg/L
  Viability, 3: 97%
  Viable cell count, 3: 1.6 ×10^6 cells/well
  Amount of protein produced, 3: 12.6 mg/L
[1]; 1.0 mM GEK
  Viability, Average: 96.7%
  Viable cell count, Average: 1.5 ×10^6 cells/well
  Amount of protein produced, Average: 13.1 mg/L
  Viability, 1: 97%
  Viable cell count, 1: 1.3 ×10^6 cells/well
  Amount of protein produced, 1: 12.4 mg/L
  Viability, 2: 97%
  Viable cell count, 2: 1.8 ×10^6 cells/well
  Amount of protein produced, 2: 12.8 mg/L
  Viability, 3: 96%
  Viable cell count, 3: 1.4 ×10^6 cells/well
  Amount of protein produced, 3: 14.1 mg/L
[1]; 2.05 mM GEK
  Viability, Average: 96.7%
  Viable cell count, Average: 1.9 ×10^6 cells/well
  Amount of protein produced, Average: 17.0 mg/L
  Viability, 1: 96%
  Viable cell count, 1: 1.9 ×10^6 cells/well
  Amount of protein produced, 1: 17.5 mg/L
  Viability, 2: 96%
  Viable cell count, 2: 2.2 ×10^6 cells/well
  Amount of protein produced, 2: 17.7 mg/L
  Viability, 3: 98%
  Viable cell count, 3: 1.4 ×10^6 cells/well
  Amount of protein produced, 3: 15.6 mg/L
[1]; 4.1 mM GEK
  Viability, Average: 97.0%
  Viable cell count, Average: 1.7 ×10^6 cells/well
  Amount of protein produced, Average: 13.3 mg/L
  Viability, 1: 97%
  Viable cell count, 1: 1.8 ×10^6 cells/well
  Amount of protein produced, 1: 13.9 mg/L
  Viability, 2: 98%
  Viable cell count, 2: 1.8 ×10^6 cells/well
  Amount of protein produced, 2: 13.2 mg/L
  Viability, 3: 96%
  Viable cell count, 3: 1.5 ×10^6 cells/well
  Amount of protein produced, 3: 12.8 mg/L
[1]; in words
  amount of protein produced as compared to the basal medium (total synthesis medium): the amount of protein produced also tended to increase
  cell viability as compared to the basal medium (total synthesis medium): the cell viability was similarly high
  viable cell count as compared to the basal medium (total synthesis medium): the viable cell count increased

## C[C@H](N)C(=O)NCC(=O)N[C@@H](CCCCN)C(=O)O [AGK, Ala-Gly-Lys] (H-Ala-Gly-Lys-OH; N-terminus and C-terminus assumed)
[2]; 1 mM AGK + DMEM basal medium
  Viable cell count: 11.97 ×10^4cells/well
  Amount of protein produced: 7.5 mg/L
[2]; [3]
  Viable cell count: 34.65 ×10^4cells/well
  Amount of protein produced: 15.74 mg/L
[2]; 2 mM AGK + DMEM basal medium
  Viable cell count: 11.73 ×10^4cells/well
  Amount of protein produced: 7.4 mg/L
[2]; [4]
  Viable cell count: 47.07 ×10^4cells/well
  Amount of protein produced: 14.34 mg/L
